Assay results published in ChEMBL document CHEMBL3352320, “Novel benzothiazinones (BTOs) as allosteric modulator or substrate competitive inhibitor of glycogen synthase kinase 3β (GSK-3β) with cellular activity of promoting glucose uptake” (Bioorg Med Chem Lett, 2014).
Blank lines part the entries; values can stand above or below the compound they belong to. Active and inactive are the calls of the source. No cut-off for these calls is given here. Non-standard residues stand in square brackets, D forms with d. Residues, ends and D or L forms follow the SMILES beside them. *: point of attachment. Myristoyl = CCCCCCCCCCCCCC(=O)*; pS = N[C@@H](COP(=O)(O)O)C(=O)O

Assays:
[1] = molecular target: T1, Glycogen synthase kinase-3 beta (Homo sapiens, UniProt P49841); assay: Competitive inhibition of GSK3beta (unknown origin) using peptide substrate GS2 assessed as ATP remaining by Kinase-Glo luminescent kinase assay
Target sequence in this assay (P49841 whole entry, looked up): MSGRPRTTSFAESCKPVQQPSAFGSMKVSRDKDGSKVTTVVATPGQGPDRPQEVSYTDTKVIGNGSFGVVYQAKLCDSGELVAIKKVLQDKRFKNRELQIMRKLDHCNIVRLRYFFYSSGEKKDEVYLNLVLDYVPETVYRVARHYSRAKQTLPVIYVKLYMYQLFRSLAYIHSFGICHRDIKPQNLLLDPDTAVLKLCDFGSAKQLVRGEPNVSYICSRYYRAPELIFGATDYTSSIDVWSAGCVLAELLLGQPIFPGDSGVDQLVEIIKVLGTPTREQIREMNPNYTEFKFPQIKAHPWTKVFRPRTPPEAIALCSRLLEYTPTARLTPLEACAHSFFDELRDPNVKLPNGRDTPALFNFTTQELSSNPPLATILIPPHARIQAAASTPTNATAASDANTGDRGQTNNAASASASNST

[2] = molecular target: Receptor tyrosine-protein kinase erbB-4 (Homo sapiens) (UniProt Q15303); assay: Inhibition of ErbB4 (unknown origin) at 100 uM
[3] = molecular target: Platelet-derived growth factor receptor beta (Homo sapiens) (UniProt P09619); assay: Inhibition of PDGFRbeta (unknown origin) at 100 uM
[4] = molecular target: Fibroblast growth factor receptor 1 (Homo sapiens) (UniProt P11362); assay: Inhibition of FGFR1 (unknown origin) at 100 uM
[5] = molecular target: Platelet-derived growth factor receptor alpha (Homo sapiens) (UniProt P16234); assay: Inhibition of PDGFRalpha (unknown origin) at 100 uM
[6] = system: 3T3-L1; assay: Increase in glucose incorporation in mouse 3T3L1 cells at 10 uM after 12 hrs by glucose assay; type: functional, cell-based
[7] = system: HepG2; assay: Increase in glucose incorporation in human HepG2 cells at 10 uM after 12 hrs by glucose assay; type: functional, cell-based
[8] = molecular target: Proto-oncogene tyrosine-protein kinase Src (Homo sapiens) (UniProt P12931); conditions: at 100 µM
Description: Inhibition of c-Src (unknown origin) at 100 uM

[9] = molecular target: T1, Glycogen synthase kinase-3 beta; assay: Inhibition of GSK3beta in human […] cells assessed as decrease in ratio of phosphorylated GS/GS at 10 uM after 12 hrs by Western blot analysis; type: cell-based
Target sequence in this assay (P49841 whole entry, looked up): as above

[10] = molecular target: Protein kinase C alpha type (Homo sapiens) (UniProt P17252); assay: Inhibition of PKCalpha (unknown origin) at 100 uM
[11] = molecular target: T1, Glycogen synthase kinase-3 beta; assay: Inhibition of GSK3beta (unknown origin) using peptide substrate GS2 assessed as ATP remaining by Kinase-Glo luminescent kinase assay
Target sequence in this assay (P49841 whole entry): as the sequence (P49841 whole entry, looked up) above

[12] = molecular target: Cyclin-dependent kinase 1 (Homo sapiens) (UniProt P06493); assay: Inhibition of CDK1 (unknown origin) at 100 uM
[13] = molecular target: Casein kinase II (Homo sapiens) (UniProt P67870+P68400+P19784); assay: Inhibition of CK2 (unknown origin) at 100 uM; type: protein-complex assay
[14] = molecular target: Vascular endothelial growth factor receptor 2 (Homo sapiens) (UniProt P35968); assay: Inhibition of KDR (unknown origin) at 100 uM
[15] = system: HepG2; assay: Increase in glucose incorporation in human HepG2 cells at 2 uM after 12 hrs by glucose assay; type: functional, cell-based
[16] = system: 3T3-L1; assay: Increase in glucose incorporation in mouse 3T3L1 cells at 2 uM after 12 hrs by glucose assay; type: functional, cell-based
[17] = molecular target: T1, Glycogen synthase kinase-3 beta; conditions: HepG2, 2 uM
Target sequence in this assay (P49841 whole entry, looked up): as above
Description: Inhibition of GSK3beta in human HepG2 cells assessed as decrease in ratio of phosphorylated GS/GS at 2 uM after 12 hrs by Western blot analysis

[18] = molecular target: T1, Glycogen synthase kinase-3 beta; conditions: HepG2, 34 uM
Target sequence in this assay (P49841 whole entry, looked up): as above
Description: Inhibition of GSK3beta in human HepG2 cells assessed as decrease in ratio of phosphorylated GS/GS at 34 uM after 12 hrs by Western blot analysis

[19] = system: HepG2; assay: Increase in glucose incorporation in human HepG2 cells at 34 uM after 12 hrs by glucose assay; type: functional, cell-based
[20] = system: 3T3-L1; assay: Increase in glucose incorporation in mouse 3T3L1 cells at 34 uM after 12 hrs by glucose assay; type: functional, cell-based

Platelet-derived growth factor receptor alpha (Homo sapiens), sequence (P16234 whole entry): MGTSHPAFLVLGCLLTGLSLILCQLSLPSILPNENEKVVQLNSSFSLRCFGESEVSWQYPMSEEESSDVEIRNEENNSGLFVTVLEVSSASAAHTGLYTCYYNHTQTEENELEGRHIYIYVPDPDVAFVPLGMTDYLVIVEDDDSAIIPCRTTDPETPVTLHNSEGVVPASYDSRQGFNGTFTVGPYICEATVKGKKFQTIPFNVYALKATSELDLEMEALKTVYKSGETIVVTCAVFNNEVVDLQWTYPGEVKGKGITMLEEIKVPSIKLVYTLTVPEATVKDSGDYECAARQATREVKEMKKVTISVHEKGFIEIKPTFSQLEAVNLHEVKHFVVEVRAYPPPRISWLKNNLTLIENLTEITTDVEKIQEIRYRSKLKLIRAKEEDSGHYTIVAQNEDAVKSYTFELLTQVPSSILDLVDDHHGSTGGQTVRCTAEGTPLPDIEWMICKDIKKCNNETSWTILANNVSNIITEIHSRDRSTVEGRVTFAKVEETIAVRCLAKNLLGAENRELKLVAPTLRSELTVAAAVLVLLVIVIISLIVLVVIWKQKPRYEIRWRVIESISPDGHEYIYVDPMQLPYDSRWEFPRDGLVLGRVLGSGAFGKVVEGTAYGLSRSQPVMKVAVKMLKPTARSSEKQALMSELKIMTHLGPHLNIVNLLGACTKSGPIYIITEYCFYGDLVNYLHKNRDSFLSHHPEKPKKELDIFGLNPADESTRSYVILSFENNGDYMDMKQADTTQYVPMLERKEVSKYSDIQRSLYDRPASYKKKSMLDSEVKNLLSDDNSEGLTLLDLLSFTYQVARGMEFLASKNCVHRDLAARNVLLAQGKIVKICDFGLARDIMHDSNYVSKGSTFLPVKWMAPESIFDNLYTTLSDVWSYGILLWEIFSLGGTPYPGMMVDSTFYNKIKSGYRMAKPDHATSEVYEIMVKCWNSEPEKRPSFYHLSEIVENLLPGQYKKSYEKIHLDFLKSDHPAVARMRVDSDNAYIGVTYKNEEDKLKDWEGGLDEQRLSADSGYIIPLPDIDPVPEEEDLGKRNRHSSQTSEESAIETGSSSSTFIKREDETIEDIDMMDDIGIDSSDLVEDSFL
Receptor tyrosine-protein kinase erbB-4 (Homo sapiens), sequence (Q15303 whole entry): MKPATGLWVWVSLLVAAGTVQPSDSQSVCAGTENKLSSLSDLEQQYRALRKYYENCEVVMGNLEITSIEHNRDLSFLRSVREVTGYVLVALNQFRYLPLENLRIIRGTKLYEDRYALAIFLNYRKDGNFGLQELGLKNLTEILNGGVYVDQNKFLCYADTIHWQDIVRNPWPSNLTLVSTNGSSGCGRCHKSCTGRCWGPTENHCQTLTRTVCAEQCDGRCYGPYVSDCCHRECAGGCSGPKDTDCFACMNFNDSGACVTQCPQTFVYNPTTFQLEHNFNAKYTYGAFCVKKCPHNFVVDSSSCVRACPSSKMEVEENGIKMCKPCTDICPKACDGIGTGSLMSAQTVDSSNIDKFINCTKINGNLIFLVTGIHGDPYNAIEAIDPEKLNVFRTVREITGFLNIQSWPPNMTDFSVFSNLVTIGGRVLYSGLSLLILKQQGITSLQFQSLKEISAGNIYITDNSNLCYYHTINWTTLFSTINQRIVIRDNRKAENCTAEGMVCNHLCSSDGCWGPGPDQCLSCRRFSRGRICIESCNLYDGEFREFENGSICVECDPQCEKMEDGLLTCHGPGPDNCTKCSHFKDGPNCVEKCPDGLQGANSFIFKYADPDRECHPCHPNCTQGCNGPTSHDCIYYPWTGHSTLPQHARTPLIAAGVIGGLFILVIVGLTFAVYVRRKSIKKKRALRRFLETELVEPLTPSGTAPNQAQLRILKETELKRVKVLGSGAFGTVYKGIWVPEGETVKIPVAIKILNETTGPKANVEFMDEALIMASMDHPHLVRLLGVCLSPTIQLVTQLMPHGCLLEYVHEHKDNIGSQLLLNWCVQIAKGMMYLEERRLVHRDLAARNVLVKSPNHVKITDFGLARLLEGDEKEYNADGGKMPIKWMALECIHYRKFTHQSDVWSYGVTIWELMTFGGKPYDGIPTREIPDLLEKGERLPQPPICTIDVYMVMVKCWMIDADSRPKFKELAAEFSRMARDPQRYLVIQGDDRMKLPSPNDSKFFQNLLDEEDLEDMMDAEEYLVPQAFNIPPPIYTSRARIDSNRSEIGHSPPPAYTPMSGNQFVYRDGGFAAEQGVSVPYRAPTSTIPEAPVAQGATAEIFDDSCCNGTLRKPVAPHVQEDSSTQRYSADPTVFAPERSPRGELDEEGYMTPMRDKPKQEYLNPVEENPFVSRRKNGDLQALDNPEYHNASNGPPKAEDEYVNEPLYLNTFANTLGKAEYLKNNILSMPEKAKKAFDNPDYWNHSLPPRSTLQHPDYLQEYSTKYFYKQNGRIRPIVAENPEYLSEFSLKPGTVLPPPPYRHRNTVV
Platelet-derived growth factor receptor beta (Homo sapiens), sequence (P09619 whole entry): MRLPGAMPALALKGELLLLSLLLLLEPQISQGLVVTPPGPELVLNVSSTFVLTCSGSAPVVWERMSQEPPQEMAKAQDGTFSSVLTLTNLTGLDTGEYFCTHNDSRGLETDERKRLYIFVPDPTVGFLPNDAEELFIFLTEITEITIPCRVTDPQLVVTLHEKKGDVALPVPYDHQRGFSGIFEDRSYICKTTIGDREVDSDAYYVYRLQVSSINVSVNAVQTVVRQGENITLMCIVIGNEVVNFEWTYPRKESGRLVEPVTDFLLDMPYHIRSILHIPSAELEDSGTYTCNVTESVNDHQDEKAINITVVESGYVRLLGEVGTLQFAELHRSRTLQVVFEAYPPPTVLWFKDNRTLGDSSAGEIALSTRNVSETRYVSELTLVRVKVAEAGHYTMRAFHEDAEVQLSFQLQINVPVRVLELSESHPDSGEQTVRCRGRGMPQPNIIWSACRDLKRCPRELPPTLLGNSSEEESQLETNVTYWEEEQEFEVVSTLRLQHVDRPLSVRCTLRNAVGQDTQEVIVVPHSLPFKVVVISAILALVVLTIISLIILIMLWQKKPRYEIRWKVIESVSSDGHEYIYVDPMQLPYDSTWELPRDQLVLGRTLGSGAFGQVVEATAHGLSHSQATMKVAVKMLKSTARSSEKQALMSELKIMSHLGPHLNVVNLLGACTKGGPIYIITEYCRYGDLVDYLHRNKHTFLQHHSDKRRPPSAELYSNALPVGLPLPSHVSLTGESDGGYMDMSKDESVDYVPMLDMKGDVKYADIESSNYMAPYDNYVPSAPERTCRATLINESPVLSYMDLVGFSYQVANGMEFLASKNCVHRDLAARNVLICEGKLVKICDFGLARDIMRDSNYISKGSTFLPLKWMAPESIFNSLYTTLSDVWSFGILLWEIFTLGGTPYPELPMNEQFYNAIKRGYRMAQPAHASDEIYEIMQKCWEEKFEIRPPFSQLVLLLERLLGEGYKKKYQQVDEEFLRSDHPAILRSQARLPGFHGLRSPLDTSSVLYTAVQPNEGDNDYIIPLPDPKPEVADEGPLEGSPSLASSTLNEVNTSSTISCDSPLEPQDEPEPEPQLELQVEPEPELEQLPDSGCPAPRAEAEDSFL
Fibroblast growth factor receptor 1 (Homo sapiens), sequence (P11362 22-822 limits assumed): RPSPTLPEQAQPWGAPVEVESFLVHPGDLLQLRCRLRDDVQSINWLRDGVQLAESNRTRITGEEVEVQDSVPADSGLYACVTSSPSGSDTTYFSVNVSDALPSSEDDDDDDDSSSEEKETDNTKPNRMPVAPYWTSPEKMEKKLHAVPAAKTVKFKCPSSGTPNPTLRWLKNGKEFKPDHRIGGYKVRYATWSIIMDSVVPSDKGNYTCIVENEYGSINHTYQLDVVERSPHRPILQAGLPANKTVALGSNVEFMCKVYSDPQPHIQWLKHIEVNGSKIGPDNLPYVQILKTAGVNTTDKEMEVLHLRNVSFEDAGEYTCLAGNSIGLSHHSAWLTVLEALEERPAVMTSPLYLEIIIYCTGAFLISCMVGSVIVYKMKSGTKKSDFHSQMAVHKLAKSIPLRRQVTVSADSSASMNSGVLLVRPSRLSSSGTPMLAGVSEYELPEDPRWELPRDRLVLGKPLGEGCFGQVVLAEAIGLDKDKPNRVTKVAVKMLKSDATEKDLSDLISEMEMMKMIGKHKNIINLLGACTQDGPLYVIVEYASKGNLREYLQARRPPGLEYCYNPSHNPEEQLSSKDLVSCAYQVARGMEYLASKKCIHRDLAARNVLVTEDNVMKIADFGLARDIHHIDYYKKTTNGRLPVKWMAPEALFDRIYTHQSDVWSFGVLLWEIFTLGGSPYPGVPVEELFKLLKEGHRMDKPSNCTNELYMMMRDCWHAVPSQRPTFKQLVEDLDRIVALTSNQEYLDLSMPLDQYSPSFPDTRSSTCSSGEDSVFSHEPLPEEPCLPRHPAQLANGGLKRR

inhibition [1]: Active
inhibition [2]: 0%
inhibition [3]: 0%
inhibition [4]: 29.3%
inhibition [5]: 0%
inhibition [8]: 12.2%
inhibition [9]: Active
inhibition [10]: 13%
IC50 [11]: 10 µM
inhibition [12]: 36%
inhibition [13]: 0%
inhibition [14]: 12.4%
SMILES: CCCCCCCCCCCC(=O)NNC(=O)C1Sc2ccccc2N(Cc2ccccc2)C1=O (stereo not drawn)
Activity [6]: Active
Activity [7]: Active

IC50 [11]: 40 µM
SMILES: CCCCCCCCCCCCCC(=O)NCC(=O)N[C@@H](CCCCN)C(=O)N[C@@H](CCC(=O)O)C(=O)N[C@@H](C)C(=O)N1CCC[C@H]1C(=O)N1CCC[C@H]1C(=O)N[C@@H](C)C(=O)N1CCC[C@H]1C(=O)N1CCC[C@H]1C(=O)N[C@@H](CCC(N)=O)C(=O)N[C@@H](COP(=O)(O)O)C(=O)N1CCC[C@H]1C(N)=O (Myristoyl-GKEAPPAPPQ[pS]P-NH2)

inhibition [17]: Active
SMILES: Cn1sc(=O)n(Cc2ccccc2)c1=O
Activity [15]: Active
Activity [16]: Active

inhibition [9]: Active
IC50 [11]: 8 µM
SMILES: CCCCCCCCCCCC(=O)NNC(=O)C1Sc2ccccc2N(CC)C1=O (stereo not drawn)
Activity [6]: Active
Activity [7]: Active

inhibition [2]: 88.1%
SMILES: CN(C)C/C=C/C(=O)Nc1cc2c(Nc3ccc(F)c(Cl)c3)ncnc2cc1O[C@H]1CCOC1

inhibition [3]: 70.6%
inhibition [5]: 71.4%
SMILES: CCN(CC)CCNC(=O)c1c(C)[nH]c(/C=C2\C(=O)Nc3ccc(F)cc32)c1C

inhibition [18]: Active
SMILES: Cn1cc(C2=C(c3ccc(Cl)cc3Cl)C(=O)NC2=O)c2ccccc21
Activity [19]: Active
Activity [20]: Active
